We go through ten compounds from US12539292B2, “BRM targeting compounds and associated methods of use” (Arvinas Operations, Inc., priority 2018, dated 2026).

Where only a bound is given, the exact number is not on record here.

This experiment deals with T1, BRM (Homo sapiens, UniProt P51531).
T1 construct: In-Cell Western Screen of BRM Degradation in SW1573 Cells; endogenous in cells; host or cells: SW1573
Put plainly: In-cell Western screen of BRM degradation in SW1573 cells (Dmax and DC50). The settings on record: BRM degradation, SW1573 cells, Table 2D; for Dmax: read-out: **Dmax (%) (% degraded); for DC50: read-out: *DC50. Format: cell-based. The method, then:
In-Cell Western Screen of BRM Degradation in SW1573 Cells
To assess BRM degradation (Dmax and DC50), cells were seeded at 8000/well in 96-well black/clear-bottom plates in 180 μL DMEM growth media (containing 1% pen-strep, 1% HEPES and 10% FBS) per well. Plates were incubated overnight to allow adhesion. The next morning cells were treated by adding 20 μL of 10× compound (1% DMSO) to appropriate wells and returned to incubator for overnight (18-20 hours). The final DMSO concentration was 0.1%.
For processing, the plates were removed from incubator, the media was removed, and immediately 200 μL of cold (4° C.) DPBS was added to all wells. DPBS was then removed, and 50 μL of 4% paraformaldehyde (PFA) in DPBS (4° C.) was added to all wells, and the plates were incubated at room temperature for 20 minutes. PFA was then removed, and 200 μL of TBS-T containing 0.5% Triton X-100 was added to all wells, and the plates were incubated at room temperature for 30 minutes. TBS-T containing 0.5% Triton X-100 was then removed, and 50 μL of Li-Cor blocking solution was added, and the plates were incubated at room temperature for a minimum of one hour.
The next day plates were washed three times with TBS-T, 200 μL per well. Fifty (50) μL of secondary antibody cocktail in LI-COR blocking solution (anti-rabbit_800 nm and anti-mouse_680 nm) was added to all wells (diluted 1:5000). The plates were incubated at room temperature for at least one hour while protected from light. The plates were washed twice with TBS-T, 200 μL per well.
To read each plate TBS-T was removed, and each plate was inverted tapped on a paper towel. The plates were read on the LI-COR Odyssey with default intensity settings of 5.0 for both channels. LI-COR images were analyzed with the in-cell Western feature of Image Studio Lite.

T1 sequence (P51531 whole entry): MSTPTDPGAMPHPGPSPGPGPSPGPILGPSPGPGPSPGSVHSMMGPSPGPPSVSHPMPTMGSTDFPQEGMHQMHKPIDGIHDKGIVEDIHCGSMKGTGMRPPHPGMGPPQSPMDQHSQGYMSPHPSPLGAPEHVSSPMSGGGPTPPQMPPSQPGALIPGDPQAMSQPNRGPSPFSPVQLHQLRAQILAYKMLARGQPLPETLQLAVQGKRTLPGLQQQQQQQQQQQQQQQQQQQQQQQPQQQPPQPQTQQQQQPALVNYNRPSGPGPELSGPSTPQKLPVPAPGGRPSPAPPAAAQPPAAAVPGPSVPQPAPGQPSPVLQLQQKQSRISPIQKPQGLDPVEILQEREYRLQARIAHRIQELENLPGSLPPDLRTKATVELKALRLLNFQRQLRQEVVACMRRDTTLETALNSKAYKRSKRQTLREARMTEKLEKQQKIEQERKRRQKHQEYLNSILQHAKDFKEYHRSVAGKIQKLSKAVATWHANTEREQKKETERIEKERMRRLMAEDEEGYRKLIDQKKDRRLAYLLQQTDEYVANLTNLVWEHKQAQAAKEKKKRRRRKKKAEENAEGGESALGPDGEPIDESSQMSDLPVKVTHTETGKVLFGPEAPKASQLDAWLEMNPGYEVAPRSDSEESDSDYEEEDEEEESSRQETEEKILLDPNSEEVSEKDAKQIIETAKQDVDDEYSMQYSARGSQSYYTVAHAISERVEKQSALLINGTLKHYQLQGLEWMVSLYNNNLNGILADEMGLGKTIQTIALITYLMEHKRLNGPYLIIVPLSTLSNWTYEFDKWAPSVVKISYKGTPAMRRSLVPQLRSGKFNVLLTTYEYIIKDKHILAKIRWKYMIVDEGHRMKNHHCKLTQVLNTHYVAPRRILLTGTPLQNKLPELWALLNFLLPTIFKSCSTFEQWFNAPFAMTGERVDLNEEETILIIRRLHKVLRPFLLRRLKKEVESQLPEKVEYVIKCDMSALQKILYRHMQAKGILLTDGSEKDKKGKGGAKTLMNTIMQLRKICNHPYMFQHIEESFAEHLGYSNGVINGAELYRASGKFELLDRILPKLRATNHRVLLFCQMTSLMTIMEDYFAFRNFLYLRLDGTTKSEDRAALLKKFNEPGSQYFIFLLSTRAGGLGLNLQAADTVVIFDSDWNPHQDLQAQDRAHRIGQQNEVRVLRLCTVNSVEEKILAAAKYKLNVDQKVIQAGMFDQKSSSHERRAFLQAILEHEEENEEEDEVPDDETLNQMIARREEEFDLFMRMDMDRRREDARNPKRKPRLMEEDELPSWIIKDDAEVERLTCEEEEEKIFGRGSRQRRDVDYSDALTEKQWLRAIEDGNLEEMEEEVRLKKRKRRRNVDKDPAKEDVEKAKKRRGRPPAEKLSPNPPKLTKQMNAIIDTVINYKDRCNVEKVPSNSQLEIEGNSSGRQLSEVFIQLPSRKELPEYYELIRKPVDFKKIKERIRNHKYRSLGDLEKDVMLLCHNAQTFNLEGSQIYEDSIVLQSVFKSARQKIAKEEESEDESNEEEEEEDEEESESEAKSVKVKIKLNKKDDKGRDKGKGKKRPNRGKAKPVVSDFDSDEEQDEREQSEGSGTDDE

Usually Dmax stands for the largest share of the target that was removed. As a reminder, the DC50 is the concentration at which degradation of the target reaches its halfway point. Take `Cc1ncsc1-c1ccc([C@H](C)NC(=O)[C@@H]2C[C@@H](O)CN2C(=O)[C@@H](c2cc(OCC[C@@H]3CCN(C[C@H]4C[C@H](Oc5cc(N6C7CCC6CN(c6cc(-c8ccccc8O)nnc6N)C7)ccn5)C4)C[C@H]3C)no2)C(C)C)cc1` (racemic) [compound 546, (2S,4R)-1-((2R)-2-(3-(2-((3S,4S)-1-(((1r,3S)-3-((4-(3-(3-amino-6-(2-hydroxyphenyl)pyridazin-4-yl)-3,8-diazabicyclo[3.2.1]octan-8-yl)pyridin-2-yl)oxy)cyclobutyl)methyl)-3-methylpiperidin-4-yl)ethoxy)isoxazol-5-yl)-3-methylbutanoyl)-4-hydroxy-N-((S)-1-(4-(4-methylthiazol-5-yl)phenyl)ethyl)pyrrolidine-2-carboxamide]: the Dmax is > 75% and the half-maximal degradation concentration (DC50) was < 2.5 nM.
Consider `Cc1ncsc1-c1ccc([C@H](C)NC(=O)[C@@H]2C[C@@H](O)CN2C(=O)[C@H](c2cc(OCC[C@H]3CCN(C[C@H]4C[C@H](Oc5cc(N6C7CCC6CN(c6cc(-c8ccccc8O)nnc6N)C7)ccn5)C4)[C@@H](C)C3)no2)C(C)C)cc1` (racemic) [compound 547, (2S,4R)-1-((2S)-2-(3-(2-((2S,4S)-1-(((1r,3S)-3-((4-(3-(3-amino-6-(2-hydroxyphenyl)pyridazin-4-yl)-3,8-diazabicyclo[3.2.1]octan-8-yl)pyridin-2-yl)oxy)cyclobutyl)methyl)-2-methylpiperidin-4-yl)ethoxy)isoxazol-5-yl)-3-methylbutanoyl)-4-hydroxy-N-((S)-1-(4-(4-methylthiazol-5-yl)phenyl)ethyl)pyrrolidine-2-carboxamide], for which the DC50 was > 30 nM.
Still for that read-out and setting: under `Cc1ncsc1-c1ccc([C@H](C)NC(=O)[C@@H]2C[C@@H](O)CN2C(=O)[C@H](c2cc(OCC[C@H]3CCN(C[C@H]4C[C@H](Oc5cc(N6C7CCC6CN(c6cc(-c8ccccc8O)nnc6N)C7)ccn5)C4)C[C@H]3C)no2)C(C)C)cc1` (racemic) [compound 565, (2S,4R)-1-((2S)-2-(3-(2-((3S,4R)-1-(((1r,3S)-3-((4-(3-(3-amino-6-(2-hydroxyphenyl)pyridazin-4-yl)-3,8-diazabicyclo[3.2.1]octan-8-yl)pyridin-2-yl)oxy)cyclobutyl)methyl)-3-methylpiperidin-4-yl)ethoxy)isoxazol-5-yl)-3-methylbutanoyl)-4-hydroxy-N-((S)-1-(4-(4-methylthiazol-5-yl)phenyl)ethyl) pyrrolidine-2-carboxamide] stands > 30 nM.
Regarding `Cc1ncsc1-c1ccc([C@H](C)NC(=O)[C@@H]2C[C@@H](O)CN2C(=O)[C@@H](c2cc(OCC[C@H]3CCN(C[C@H]4C[C@H](Oc5cc(N6C7CCC6CN(c6cc(-c8ccccc8O)nnc6N)C7)ccn5)C4)C[C@H]3C)no2)C(C)C)cc1` (racemic) [compound 566, (2S,4R)-1-((2R)-2-(3-(2-((3S,4R)-1-(((1r,3S)-3-((4-(3-(3-amino-6-(2-hydroxyphenyl)pyridazin-4-yl)-3,8-diazabicyclo[3.2.1]octan-8-yl)pyridin-2-yl)oxy)cyclobutyl)methyl)-3-methylpiperidin-4-yl)ethoxy)isoxazol-5-yl)-3-methylbutanoyl)-4-hydroxy-N-((S)-1-(4-(4-methylthiazol-5-yl)phenyl)ethyl) pyrrolidine-2-carboxamide], the Dmax is > 75% and the 50% degradation concentration (DC50) was < 2.5 nM.
The matching figures for `Cc1ncsc1-c1ccc([C@H](C)NC(=O)[C@@H]2C[C@@H](O)CN2C(=O)[C@@H](c2cc(OCCN3CC[C@@H](OCCc4cc(N5C6CCC5CN(c5cc(-c7ccccc7O)nnc5N)C6)ccn4)C[C@@H]3C)no2)C(C)C)cc1` (racemic) [compound 567, (2S,4R)-1-((2R)-2-(3-(2-((2S,4R)-4-(2-(4-(3-(3-amino-6-(2-hydroxyphenyl)pyridazin-4-yl)-3,8-diazabicyclo[3.2.1]octan-8-yl)pyridin-2-yl)ethoxy)-2-methylpiperidin-1-yl)ethoxy)isoxazol-5-yl)-3-methylbutanoyl)-4-hydroxy-N-((S)-1-(4-(4-methylthiazol-5-yl)phenyl)ethyl) pyrrolidine-2-carboxamide]: > 75% and 2.5 to 10 nM.
As to `Cc1ncsc1-c1ccc([C@H](C)NC(=O)[C@@H]2C[C@@H](O)CN2C(=O)[C@@H](c2cc(OCCN3CC[C@H](OCCc4cc(N5C6CCC5CN(c5cc(-c7ccccc7O)nnc5N)C6)ccn4)C[C@@H]3C)no2)C(C)C)cc1` (racemic) [compound 568, (2S,4R)-1-((2R)-2-(3-(2-((2S,4S)-4-(2-(4-(3-(3-amino-6-(2-hydroxyphenyl)pyridazin-4-yl)-3,8-diazabicyclo[3.2.1]octan-8-yl)pyridin-2-yl)ethoxy)-2-methylpiperidin-1-yl)ethoxy)isoxazol-5-yl)-3-methylbutanoyl)-4-hydroxy-N-((S)-1-(4-(4-methylthiazol-5-yl)phenyl)ethyl)pyrrolidine-2-carboxamide], the Dmax was > 75% and the DC50 was < 2.5 nM.
The matching figures for `Cc1ncsc1-c1ccc([C@H](C)NC(=O)[C@@H]2C[C@@H](O)CN2C(=O)[C@@H](c2cc(OCC[C@H]3CCN(C[C@H]4C[C@H](Oc5cc(N6C7CCC6CN(c6cc(-c8ccccc8O)nnc6N)C7)ccn5)C4)C[C@@H]3C)no2)C(C)C)cc1` (racemic) [compound 577, (2S,4R)-1-((2R)-2-(3-(2-((3R,4R)-1-(((1r,3R)-3-((4-(3-(3-amino-6-(2-hydroxyphenyl)pyridazin-4-yl)-3,8-diazabicyclo[3.2.1]octan-8-yl)pyridin-2-yl)oxy)cyclobutyl)methyl)-3-methylpiperidin-4-yl)ethoxy)isoxazol-5-yl)-3-methylbutanoyl)-4-hydroxy-N-((S)-1-(4-(4-methylthiazol-5-yl)phenyl)ethyl)pyrrolidine-2-carboxamide]: > 75% and < 2.5 nM.
Taken in the same sequence, the figures for `Cc1ncsc1-c1ccc([C@H](C)NC(=O)[C@@H]2C[C@@H](O)CN2C(=O)[C@H](c2cc(OCC[C@H]3CCN(C[C@H]4C[C@H](Oc5cc(N6C7CCC6CN(c6cc(-c8ccccc8O)nnc6N)C7)ccn5)C4)C[C@@H]3C)no2)C(C)C)cc1` (racemic) [compound 578, (2S,4R)-1-((2S)-2-(3-(2-((3R,4R)-1-(((1r,3R)-3-((4-(3-(3-amino-6-(2-hydroxyphenyl)pyridazin-4-yl)-3,8-diazabicyclo[3.2.1]octan-8-yl)pyridin-2-yl)oxy)cyclobutyl)methyl)-3-methylpiperidin-4-yl)ethoxy)isoxazol-5-yl)-3-methylbutanoyl)-4-hydroxy-N-((S)-1-(4-(4-methylthiazol-5-yl)phenyl)ethyl)pyrrolidine-2-carboxamide] were > 75% and < 2.5 nM.
Taken in the same sequence, the figures for `Cc1ncsc1-c1ccc([C@H](C)NC(=O)[C@@H]2C[C@@H](O)CN2C(=O)[C@H](c2cc(OCC[C@@H]3CCN(C[C@H]4C[C@H](Oc5cc(N6C7CCC6CN(c6cc(-c8ccccc8O)nnc6N)C7)ccn5)C4)[C@H](C)C3)no2)C(C)C)cc1` (racemic) [compound 579, (2S,4R)-1-((2S)-2-(3-(2-((2R,4R)-1-(((1r,3R)-3-((4-(3-(3-amino-6-(2-hydroxyphenyl)pyridazin-4-yl)-3,8-diazabicyclo[3.2.1]octan-8-yl)pyridin-2-yl)oxy)cyclobutyl)methyl)-2-methylpiperidin-4-yl)ethoxy)isoxazol-5-yl)-3-methylbutanoyl)-4-hydroxy-N-((S)-1-(4-(4-methylthiazol-5-yl)phenyl)ethyl)pyrrolidine-2-carboxamide] were > 75% and < 2.5 nM.
In the case of `Cc1ncsc1-c1ccc([C@H](C)NC(=O)[C@@H]2C[C@@H](O)CN2C(=O)[C@@H](c2cc(OCC[C@@H]3CCN(C[C@H]4C[C@H](Oc5cc(N6C7CCC6CN(c6cc(-c8ccccc8O)nnc6N)C7)ccn5)C4)[C@H](C)C3)no2)C(C)C)cc1` (racemic) [compound 580, (2S,4R)-1-((2R)-2-(3-(2-((2R,4R)-1-(((1r,3R)-3-((4-(3-(3-amino-6-(2-hydroxyphenyl)pyridazin-4-yl)-3,8-diazabicyclo[3.2.1]octan-8-yl)pyridin-2-yl)oxy)cyclobutyl)methyl)-2-methylpiperidin-4-yl)ethoxy)isoxazol-5-yl)-3-methylbutanoyl)-4-hydroxy-N-((S)-1-(4-(4-methylthiazol-5-yl)phenyl)ethyl)pyrrolidine-2-carboxamide], the greatest degradation seen (Dmax) was > 75% and the DC50 was < 2.5 nM.
